Experimental findings from ChEMBL document CHEMBL4825658, “Discovery of 3-(4-(2-((1H-Indol-5-yl)amino)-5-fluoropyrimidin-4-yl)-1H-pyrazol-1-yl)propanenitrile Derivatives as Selective TYK2 Inhibitors for the Treatment of Inflammatory Bowel Disease” (J Med Chem, 2021) are described below.

Bounds are passed on as bounds.

The species named for one data set is Homo sapiens. The data set is described as follows: Selectivity index, ratio of IC50 for inhibition of recombinant human JAK2 (808 to end residues) to IC50 for inhibition of recombinant human TYK2 (875 to end residues).
The target in data set [1] is Non-receptor tyrosine-protein kinase TYK2 (Homo sapiens, UniProt P29597). The data set is described as follows: Inhibition of recombinant human TYK2 (875 to end residues) using GGMEDIYFEFMGG as substrate incubated for 40 mins in presence of [gamma33P]ATP by scintillation counting based radiometry assay.
Data set [2] addresses Tyrosine-protein kinase JAK2 (Homo sapiens, UniProt O60674). The data set is described as follows: Inhibition of recombinant human JAK2 (808 to end residues) KTFCGTPEYLAPE as substrate measured after 40 mins in presence of [gamm33P]ATP by scintillation counting based radiometry assay.
Data set [3] in a line: Metabolic stability in cryopreserved human liver microsomes assessed as half life. Format: ADME, Microsome. (In general: Liver microsomes are a subcellular fraction often used to study metabolism.)
Data set [4] addresses T1, Tyrosine-protein kinase JAK3 (Homo sapiens, UniProt P52333).
T1 sequence (P52333 whole entry): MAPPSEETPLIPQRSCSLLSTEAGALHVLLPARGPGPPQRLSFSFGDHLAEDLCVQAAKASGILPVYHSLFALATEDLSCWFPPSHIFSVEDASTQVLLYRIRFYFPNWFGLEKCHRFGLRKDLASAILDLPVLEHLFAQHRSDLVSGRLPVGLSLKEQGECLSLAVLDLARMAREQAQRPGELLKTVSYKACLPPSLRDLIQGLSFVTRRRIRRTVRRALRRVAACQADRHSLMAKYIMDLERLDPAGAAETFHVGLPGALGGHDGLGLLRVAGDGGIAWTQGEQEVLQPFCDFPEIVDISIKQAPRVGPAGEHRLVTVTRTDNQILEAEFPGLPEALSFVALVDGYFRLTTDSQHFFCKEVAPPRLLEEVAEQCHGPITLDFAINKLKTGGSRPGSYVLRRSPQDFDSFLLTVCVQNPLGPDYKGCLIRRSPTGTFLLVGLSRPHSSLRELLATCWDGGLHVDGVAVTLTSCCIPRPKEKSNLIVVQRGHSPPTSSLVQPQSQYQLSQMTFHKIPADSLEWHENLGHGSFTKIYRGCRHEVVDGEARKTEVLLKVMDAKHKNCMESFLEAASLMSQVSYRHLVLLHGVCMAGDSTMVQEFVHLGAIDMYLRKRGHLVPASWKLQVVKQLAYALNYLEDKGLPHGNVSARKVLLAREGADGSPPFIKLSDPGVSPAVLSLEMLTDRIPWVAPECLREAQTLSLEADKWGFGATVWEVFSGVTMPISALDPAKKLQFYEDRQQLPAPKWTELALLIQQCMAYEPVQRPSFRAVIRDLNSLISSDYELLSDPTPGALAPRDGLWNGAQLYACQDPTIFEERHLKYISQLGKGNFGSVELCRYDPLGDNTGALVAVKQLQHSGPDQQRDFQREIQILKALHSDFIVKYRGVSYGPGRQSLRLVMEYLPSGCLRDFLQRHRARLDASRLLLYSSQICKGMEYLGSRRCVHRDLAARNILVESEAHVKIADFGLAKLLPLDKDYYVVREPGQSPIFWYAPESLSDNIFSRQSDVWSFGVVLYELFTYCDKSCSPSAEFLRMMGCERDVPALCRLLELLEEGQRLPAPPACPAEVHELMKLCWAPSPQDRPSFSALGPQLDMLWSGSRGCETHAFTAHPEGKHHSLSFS
The data set is described as follows: Inhibition of recombinant human JAK3 (781 to end residues) using GGEEEEYFELVKKKK as substrate measured after 40 mins in presence of [gamma33P]ATP by scintillation counting based radiometry assay.

In data set [5] the target is Tyrosine-protein kinase JAK1 (Homo sapiens, UniProt P23458). The data set is described as follows: Inhibition of human JAK1 (866 to end residues) using GEEPLYWSFPAKKK as substrate after 40 mins in presence of [gamma33P]ATP by scintillation counting based radiometry assay.
Sequence of Tyrosine-protein kinase JAK1 (P23458 whole entry): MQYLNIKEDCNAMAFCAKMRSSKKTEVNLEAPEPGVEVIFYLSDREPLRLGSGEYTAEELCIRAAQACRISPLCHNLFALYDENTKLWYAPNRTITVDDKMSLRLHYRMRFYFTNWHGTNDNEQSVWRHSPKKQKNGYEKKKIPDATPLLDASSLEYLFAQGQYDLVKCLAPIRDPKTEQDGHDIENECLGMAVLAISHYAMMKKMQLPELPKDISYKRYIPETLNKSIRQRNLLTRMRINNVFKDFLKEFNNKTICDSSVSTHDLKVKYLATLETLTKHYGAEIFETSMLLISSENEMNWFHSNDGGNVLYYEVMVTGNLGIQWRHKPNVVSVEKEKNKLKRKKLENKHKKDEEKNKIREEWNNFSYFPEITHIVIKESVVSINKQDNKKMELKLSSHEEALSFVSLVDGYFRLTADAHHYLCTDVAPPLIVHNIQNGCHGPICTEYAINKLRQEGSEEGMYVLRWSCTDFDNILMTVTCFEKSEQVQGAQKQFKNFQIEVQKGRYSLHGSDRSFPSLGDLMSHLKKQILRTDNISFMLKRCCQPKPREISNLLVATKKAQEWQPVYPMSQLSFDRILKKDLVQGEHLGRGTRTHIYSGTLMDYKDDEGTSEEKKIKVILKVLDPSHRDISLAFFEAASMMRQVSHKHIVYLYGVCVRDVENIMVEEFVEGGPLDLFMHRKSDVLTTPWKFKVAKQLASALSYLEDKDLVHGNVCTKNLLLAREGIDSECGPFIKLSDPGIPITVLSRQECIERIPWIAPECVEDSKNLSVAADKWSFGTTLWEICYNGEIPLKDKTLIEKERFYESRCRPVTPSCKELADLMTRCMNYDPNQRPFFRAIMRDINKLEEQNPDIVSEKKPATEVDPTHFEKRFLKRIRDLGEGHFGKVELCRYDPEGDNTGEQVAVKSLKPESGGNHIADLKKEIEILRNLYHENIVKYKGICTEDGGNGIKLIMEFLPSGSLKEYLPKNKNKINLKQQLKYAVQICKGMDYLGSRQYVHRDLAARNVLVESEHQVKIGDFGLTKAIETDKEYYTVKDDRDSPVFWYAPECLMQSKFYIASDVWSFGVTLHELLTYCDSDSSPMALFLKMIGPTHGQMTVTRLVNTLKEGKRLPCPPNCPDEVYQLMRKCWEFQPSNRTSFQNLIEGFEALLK

Sequence of Tyrosine-protein kinase JAK2 (O60674 whole entry): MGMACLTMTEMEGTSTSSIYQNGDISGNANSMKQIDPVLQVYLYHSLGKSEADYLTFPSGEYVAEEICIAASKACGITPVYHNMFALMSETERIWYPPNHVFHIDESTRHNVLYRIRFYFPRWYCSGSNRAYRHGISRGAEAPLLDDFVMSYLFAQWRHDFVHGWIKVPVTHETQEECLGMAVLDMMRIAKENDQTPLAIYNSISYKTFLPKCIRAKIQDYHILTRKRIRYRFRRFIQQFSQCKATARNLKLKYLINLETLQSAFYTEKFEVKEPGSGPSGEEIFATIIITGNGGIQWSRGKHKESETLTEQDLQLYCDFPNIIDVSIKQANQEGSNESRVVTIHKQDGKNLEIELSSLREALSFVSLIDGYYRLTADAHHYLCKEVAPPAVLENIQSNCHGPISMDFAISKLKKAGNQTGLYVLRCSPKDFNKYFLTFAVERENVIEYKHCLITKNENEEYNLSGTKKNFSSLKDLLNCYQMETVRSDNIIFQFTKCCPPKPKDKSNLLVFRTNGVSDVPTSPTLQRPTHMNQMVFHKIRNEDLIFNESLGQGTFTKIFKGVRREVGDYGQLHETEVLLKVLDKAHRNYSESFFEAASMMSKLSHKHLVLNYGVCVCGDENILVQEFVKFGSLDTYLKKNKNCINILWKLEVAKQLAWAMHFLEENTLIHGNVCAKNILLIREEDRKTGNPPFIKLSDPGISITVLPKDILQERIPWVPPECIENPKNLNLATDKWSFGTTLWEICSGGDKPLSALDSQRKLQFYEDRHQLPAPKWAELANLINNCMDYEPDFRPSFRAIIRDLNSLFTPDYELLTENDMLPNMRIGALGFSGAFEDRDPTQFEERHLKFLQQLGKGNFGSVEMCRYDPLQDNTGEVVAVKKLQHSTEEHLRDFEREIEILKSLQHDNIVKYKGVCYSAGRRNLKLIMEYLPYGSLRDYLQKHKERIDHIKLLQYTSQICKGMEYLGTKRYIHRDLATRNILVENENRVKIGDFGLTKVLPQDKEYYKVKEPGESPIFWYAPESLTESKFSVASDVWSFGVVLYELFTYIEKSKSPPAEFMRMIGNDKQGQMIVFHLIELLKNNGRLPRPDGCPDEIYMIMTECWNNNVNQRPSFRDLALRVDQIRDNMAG
Sequence of Non-receptor tyrosine-protein kinase TYK2 (P29597 whole entry): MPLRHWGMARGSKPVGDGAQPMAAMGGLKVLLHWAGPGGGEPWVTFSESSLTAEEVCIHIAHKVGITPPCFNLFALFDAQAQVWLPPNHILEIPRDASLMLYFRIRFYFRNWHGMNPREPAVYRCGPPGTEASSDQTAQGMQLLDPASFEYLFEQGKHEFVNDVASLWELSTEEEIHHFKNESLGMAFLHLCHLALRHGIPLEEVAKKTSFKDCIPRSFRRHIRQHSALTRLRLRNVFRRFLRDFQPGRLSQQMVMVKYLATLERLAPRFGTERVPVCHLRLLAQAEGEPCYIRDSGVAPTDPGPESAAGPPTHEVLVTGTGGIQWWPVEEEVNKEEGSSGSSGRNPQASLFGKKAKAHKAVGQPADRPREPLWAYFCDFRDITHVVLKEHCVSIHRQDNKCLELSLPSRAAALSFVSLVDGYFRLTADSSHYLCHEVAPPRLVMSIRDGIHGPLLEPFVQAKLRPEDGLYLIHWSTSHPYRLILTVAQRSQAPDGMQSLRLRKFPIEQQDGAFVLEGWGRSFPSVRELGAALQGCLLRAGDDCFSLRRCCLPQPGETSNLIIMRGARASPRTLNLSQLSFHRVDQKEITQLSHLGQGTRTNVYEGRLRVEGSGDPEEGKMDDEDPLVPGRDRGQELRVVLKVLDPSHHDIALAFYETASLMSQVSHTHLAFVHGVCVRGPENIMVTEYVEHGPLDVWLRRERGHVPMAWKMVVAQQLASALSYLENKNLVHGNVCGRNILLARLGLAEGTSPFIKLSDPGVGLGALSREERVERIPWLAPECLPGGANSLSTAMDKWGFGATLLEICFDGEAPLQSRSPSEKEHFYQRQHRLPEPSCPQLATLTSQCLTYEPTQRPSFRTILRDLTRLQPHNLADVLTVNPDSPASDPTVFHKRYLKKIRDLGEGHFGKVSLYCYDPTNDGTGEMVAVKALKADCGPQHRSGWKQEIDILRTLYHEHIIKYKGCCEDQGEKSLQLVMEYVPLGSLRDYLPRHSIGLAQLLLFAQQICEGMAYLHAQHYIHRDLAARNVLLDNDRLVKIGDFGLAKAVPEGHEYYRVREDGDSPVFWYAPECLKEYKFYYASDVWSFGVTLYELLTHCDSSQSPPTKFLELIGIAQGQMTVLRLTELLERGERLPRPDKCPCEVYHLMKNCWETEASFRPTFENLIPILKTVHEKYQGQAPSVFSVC

One may read the IC50 as the concentration needed to halve the response being measured. With `COc1ccc(S(=O)(=O)N2CCc3cc(Nc4ncc(C)c(-c5cnn(C(C)C)c5)n4)ccc32)cc1`, the Selectivity Index in the data set filed under Homo sapiens amounted to 3.08. Besides, the IC50 in data set [1] amounted to 7.82 nM; in data set [2], 24.1 nM.
What is called half-life is how long it takes for the measured level to halve. As for `N#CCCn1cc(-c2nc(Nc3ccc4c(c3)CCN4S(=O)(=O)C(F)(F)F)ncc2F)cn1`, in data set [3], the half-life is 9.8 min. Further, the IC50 in data set [4] is more than 1000 nM; in data set [1], 4 nM; in data set [5], 912 nM; in data set [2], 196 nM.
On the same counts, the results for `Cc1cnc(Nc2ccc3c(c2)CCN3S(=O)(=O)c2ccc(C(F)(F)F)cc2)nc1-c1cnn(C2CCC2)c1` are 19.5 min, more than 1000 nM, 12 nM, 333 nM and 162 nM.
Regarding `N#CCCn1cc(-c2nc(Nc3ccc4c(c3)CNC4=O)ncc2F)cn1`, the half-life in data set [3] is 56.8 min. Also, the IC50 in data set [1] was determined as 7 nM; in data set [2], 58 nM.
`Cc1cnc(Nc2ccc3c(c2)CCN3C(=O)C2CC2)nc1-c1cnn(C(C)C)c1`: in the data set filed under Homo sapiens, the Selectivity Index came out at 1.03. Besides, the concentration for half-maximal inhibition (IC50) in data set [1] was 3.76 nM; in data set [2], 3.86 nM.
For `Cc1cnc(Nc2ccc3c(c2)CCN3C(=O)[C@@H]2C[C@@H]2F)nc1-c1cnn(C(C)C)c1` the same measures were 1.65, 6.28 nM and 10.4 nM.
As to `CC(C)(C)c1ccc(C(=O)N2CCc3cc(Nc4ncc(F)c(-c5cnn(CCC#N)c5)n4)ccc32)cc1`, the concentration for half-maximal inhibition (IC50) in data set [1] worked out at 40 nM; in data set [2], 601 nM.
With `N#CCCn1cc(-c2nc(Nc3ccc4c(c3)CCN4C(=O)c3ccc(C(F)(F)F)cc3)ncc2F)cn1`, the half-life in data set [3] was 17.2 min. The IC50 was 5 nM in data set [1] and 153 nM in data set [2].
For `CC(=O)N1CCc2cc(Nc3ncc(C)c(-c4cnn(C(C)C)c4)n3)ccc21`, the Selectivity Index in the data set listed under Homo sapiens was 3.31. The values for the concentration for half-maximal inhibition (IC50) in data set [1] and in data set [2] were 1.81 nM and 6 nM, respectively.
Turning to `Cc1cnc(Nc2ccc3c(c2)CCN3S(=O)(=O)c2ccc(C(F)(F)F)cc2)nc1-c1cnn(C)c1`, the half-life in data set [3] stood at 7.3 min. Also, the IC50 was more than 1000 nM in data set [4], 148 nM in data set [1], more than 1000 nM in data set [5] and more than 1000 nM in data set [2].
Consider `Cc1cnc(Nc2ccc3c(c2)CCN3S(=O)(=O)c2ccc(C(F)(F)F)cc2)nc1-c1cnn(CCC#N)c1`, for which, in data set [3], the half-life is 22 min. Also, the IC50 in data set [4] is more than 1000 nM; in data set [1] it was 2 nM; in data set [5], 84 nM; in data set [2] it was 21 nM.
In the case of `Cc1cnc(Nc2ccc3c(c2)CCN3S(=O)(=O)c2ccc(C(F)(F)F)cc2)nc1-c1cnn(C2CC2)c1`, the half-life in data set [3] amounted to 4.13 min. Further, the 50% inhibitory concentration (IC50) in data set [1] was 60 nM.
For `N#CCCn1cc(-c2nc(Nc3ccc4c(c3)CCN4S(=O)(=O)c3ccc(C(F)(F)F)cc3)ncc2F)cn1` the same measures were 9.2 min and 9 nM.
On to `N#CCCn1cc(-c2nc(Nc3ccc4c(ccn4S(=O)(=O)c4ccc(C(F)(F)F)cc4)c3)ncc2F)cn1`, for which the half-life in data set [3] came to 38.1 min.
Consider `Cc1cnc(Nc2ccc3c(c2)CNC3=O)nc1-c1cnn(CCC#N)c1`, for which the half-life in data set [3] is 7.79 min. Besides, the 50% inhibitory concentration (IC50) was found to be 0.67 nM in data set [1] and 1.1 nM in data set [2].
For `Cc1cnc(Nc2ccc3c(c2)CCN3C(=O)c2ccc(C(F)(F)F)cc2F)nc1-c1cnn(C(C)C)c1`, in the data set listed under Homo sapiens, the Selectivity Index was 2.36. The IC50 in data set [1] came out at 10.6 nM; in data set [2], 25.1 nM.
`Cc1cnc(Nc2ccc3c(c2)CCN3S(=O)(=O)c2ccc3c(c2)CC(=O)N3)nc1-c1cnn(C(C)C)c1`: the Selectivity Index in the data set listed under Homo sapiens came out at 2.03. Further, the 50% inhibitory concentration (IC50) in data set [1] turned out to be 12.3 nM; in data set [2], 25 nM.
On the same counts, the results for `Cc1cnc(Nc2ccc3c(c2)CCN3C(=O)CCN2CCOCC2)nc1-c1cnn(C(C)C)c1` are 1.24, 9.64 nM and 12 nM.
Take `Cc1cnc(Nc2ccc(NS(=O)(=O)c3ccc(C(F)(F)F)cc3)c(F)c2)nc1-c1cnn(C(C)C)c1`: the 50% inhibitory concentration (IC50) in data set [4] was found to be 688 nM; in data set [1], 13 nM; in data set [5] it was 41 nM; in data set [2], 25 nM.
On to `Cc1cnc(Nc2ccc3c(c2)CCN3C(=O)[C@@H](O)CO)nc1-c1cnn(C(C)C)c1`, for which the Selectivity Index in the data set listed under Homo sapiens was found to be 1.95. Moreover, the IC50 in data set [1] was found to be 10.8 nM; in data set [2], 21.2 nM.
Turning to `CCCS(=O)(=O)N1CCc2cc(Nc3ncc(C)c(-c4cnn(C(C)C)c4)n3)ccc21`, the Selectivity Index in the data set filed under Homo sapiens is less than 1. The IC50 in data set [1] turned out to be 3.84 nM; in data set [2], 2.29 nM.
For `Cc1cnc(Nc2ccc3c(c2)CCN3S(=O)(=O)C2CC2)nc1-c1cnn(C(C)C)c1` the same measures were less than 1, 2.69 nM and 2.38 nM.
For `Cc1cnc(Nc2ccc3c(c2)CCN3C(=O)[C@H]2CCCN2)nc1-c1cnn(C(C)C)c1` the same measures were less than 1, 5 nM and 3 nM.
Consider `Cc1cnc(Nc2ccc3c(c2)CCN3C(=O)C2CC2(F)F)nc1-c1cnn(C(C)C)c1` (stereo not given), for which, in the data set filed under Homo sapiens, the Selectivity Index was found to be 1.16. In addition, the half-inhibitory concentration (IC50) was 5.72 nM in data set [1] and 6.65 nM in data set [2].
Take `N#CCCn1cc(-c2nc(Nc3ccc4c(ccn4C(=O)C4CC4)c3)ncc2F)cn1`: the half-life in data set [3] turned out to be 69.3 min. The results for the IC50 in data set [1] and in data set [2] were 151 nM and 299 nM, respectively.
Regarding `CCCn1cc(-c2nc(Nc3ccc4c(c3)CCN4S(=O)(=O)c3ccc(C(F)(F)F)cc3)ncc2C)cn1`, in data set [3], the half-life worked out at 2.38 min. Also, the IC50 in data set [1] turned out to be 23 nM.
For `Cc1cnc(Nc2ccc3c(c2)CCN3C(=O)Cc2ccc(OC(F)(F)F)cc2)nc1-c1cnn(C(C)C)c1`, the Selectivity Index in the data set listed under Homo sapiens was determined as 7.8. Moreover, the IC50 is 51.1 nM in data set [1] and 398 nM in data set [2].
For `Cn1ccc2cc(Nc3ncc(F)c(-c4cnn(CCC#N)c4)n3)ccc21`, in data set [3], the half-life was found to be 7.62 min. Further, the 50% inhibitory concentration (IC50) in data set [1] was 18 nM; in data set [2] it was 114 nM.
In the case of `Cc1cnc(Nc2ccc3c(c2)CCN3C(=O)c2cccc(C(F)(F)F)c2)nc1-c1cnn(C(C)C)c1`, the Selectivity Index in the data set filed under Homo sapiens turned out to be 4.49. For the same molecule, the results for the IC50 in data set [1] and in data set [2] were 14.6 nM and 65.3 nM, respectively.
On to `Cc1cnc(Nc2ccc(N3CCC(N(C)CCO)CC3)c(F)c2)nc1-c1cnn(C(C)C)c1`, for which the IC50 in data set [1] amounted to 2 nM.
As for `Cc1cnc(Nc2ccc3c(c2)CCN3S(=O)(=O)c2ccc3c(c2)CC(=O)N3C)nc1-c1cnn(C(C)C)c1`, the Selectivity Index in the data set filed under Homo sapiens was less than 1. The IC50 in data set [1] was found to be 63 nM; in data set [2] it was 12.6 nM.
On the same counts, the results for `Cc1cnc(Nc2ccc3c(c2)CCN3C(=O)[C@H]2CCCN2C(=O)C2(C#N)CC2)nc1-c1cnn(C(C)C)c1` are 1.85, 2.05 nM and 3.8 nM.
On the same counts, the results for `Cc1cnc(Nc2ccc3c(c2)CCN3C(=O)CN2CCS(=O)(=O)CC2)nc1-c1cnn(C(C)C)c1` are 1.51, 1.99 nM and 3 nM.
As to `CCS(=O)(=O)N1CCc2cc(Nc3ncc(C)c(-c4cnn(C(C)C)c4)n3)ccc21`, the Selectivity Index in the data set listed under Homo sapiens stood at 1.69. For the same molecule, the 50% inhibitory concentration (IC50) in data set [1] worked out at 1.61 nM; in data set [2], 2.72 nM.
In the case of `N#CCCn1cc(-c2nc(Nc3ccc4c(c3)CCN4C(=O)CN3CCS(=O)(=O)CC3)ncc2F)cn1`, the half-life in data set [3] was more than 120 min. Further, the IC50 in data set [4] is 244 nM; in data set [1], 2 nM; in data set [5], 125 nM.
Consider `N#CCCn1cc(-c2nc(Nc3ccc4c(c3)CCN4)ncc2F)cn1`, for which, in data set [3], the half-life was 3.2 min. For the same molecule, the half-maximal inhibitory concentration (IC50) in data set [1] was 2 nM; in data set [2], 292 nM.
